In brackets after ≈: the same amount, converted by molar mass.
Columns and labels:
[1] = target: DNA-dependent protein kinase catalytic subunit (Homo sapiens) (UniProt P78527); experiment: Inhibition of human DNAPK in HL-60 cells lysate assessed as reduction of labeling of acyl-phosphate ATP probe at 100 nM; assay type: cell-free
[2] = target: T1, Inositol-tetrakisphosphate 1-kinase (Homo sapiens) (UniProt Q13572); experiment: Inhibition of human ITPK1 in HL-60 cells lysate assessed as reduction of labeling of acyl-phosphate ATP probe at 100 nM; assay type: cell-free
T1 sequence (whole entry): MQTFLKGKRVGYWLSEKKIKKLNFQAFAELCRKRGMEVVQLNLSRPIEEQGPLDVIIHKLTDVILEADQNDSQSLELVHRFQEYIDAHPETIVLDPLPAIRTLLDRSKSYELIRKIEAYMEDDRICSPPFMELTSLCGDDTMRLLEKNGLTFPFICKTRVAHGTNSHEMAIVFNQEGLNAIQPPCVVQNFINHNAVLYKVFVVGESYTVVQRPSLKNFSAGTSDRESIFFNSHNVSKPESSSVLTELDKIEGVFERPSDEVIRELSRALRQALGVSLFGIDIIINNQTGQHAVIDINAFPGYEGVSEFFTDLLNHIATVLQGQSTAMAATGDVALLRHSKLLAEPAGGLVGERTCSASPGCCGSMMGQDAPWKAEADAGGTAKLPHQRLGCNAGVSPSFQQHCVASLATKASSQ

[3] = target: Serine/threonine-protein kinase mTOR (Homo sapiens) (UniProt P42345); experiment: Inhibition of human mTOR in HL-60 cells lysate assessed as reduction of labeling of acyl-phosphate ATP probe at 100 nM; assay type: cell-free
[4] = target: Phosphatidylinositol 4-kinase beta (Homo sapiens) (UniProt Q9UBF8); experiment: Inhibition of human PI4KB in HL-60 cells lysate assessed as reduction of labeling of acyl-phosphate ATP probe at 100 nM; assay type: cell-free
Chain of Phosphatidylinositol 4-kinase beta (Homo sapiens) (Q9UBF8 2-816 limits assumed): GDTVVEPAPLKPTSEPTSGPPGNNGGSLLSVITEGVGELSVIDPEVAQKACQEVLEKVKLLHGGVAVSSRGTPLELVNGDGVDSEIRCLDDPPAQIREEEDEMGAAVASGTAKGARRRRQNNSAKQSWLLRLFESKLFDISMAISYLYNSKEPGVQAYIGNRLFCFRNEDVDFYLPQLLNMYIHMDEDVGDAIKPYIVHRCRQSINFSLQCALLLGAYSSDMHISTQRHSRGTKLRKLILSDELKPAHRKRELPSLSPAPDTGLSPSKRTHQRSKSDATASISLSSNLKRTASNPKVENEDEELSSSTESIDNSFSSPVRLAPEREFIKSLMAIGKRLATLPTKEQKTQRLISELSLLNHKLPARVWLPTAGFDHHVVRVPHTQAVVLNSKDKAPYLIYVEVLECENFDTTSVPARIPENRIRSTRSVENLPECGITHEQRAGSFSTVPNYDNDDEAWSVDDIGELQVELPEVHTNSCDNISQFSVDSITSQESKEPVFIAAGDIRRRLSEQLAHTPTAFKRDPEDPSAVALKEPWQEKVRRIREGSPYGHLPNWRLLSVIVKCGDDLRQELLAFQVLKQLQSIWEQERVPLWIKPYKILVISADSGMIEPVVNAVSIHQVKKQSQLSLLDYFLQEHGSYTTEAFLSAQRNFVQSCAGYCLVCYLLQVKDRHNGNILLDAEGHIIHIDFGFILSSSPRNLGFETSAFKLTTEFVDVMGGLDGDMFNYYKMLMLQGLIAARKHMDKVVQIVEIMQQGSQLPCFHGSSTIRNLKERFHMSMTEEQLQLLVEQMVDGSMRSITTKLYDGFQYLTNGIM

[5] = target: T2, Phosphatidylinositol 5-phosphate 4-kinase type-2 gamma (Homo sapiens) (UniProt Q8TBX8); experiment: Inhibition of human PIP4K2C in HL-60 cells lysate assessed as reduction of labeling of acyl-phosphate ATP probe at 100 nM; assay type: cell-free
T2 sequence (whole entry): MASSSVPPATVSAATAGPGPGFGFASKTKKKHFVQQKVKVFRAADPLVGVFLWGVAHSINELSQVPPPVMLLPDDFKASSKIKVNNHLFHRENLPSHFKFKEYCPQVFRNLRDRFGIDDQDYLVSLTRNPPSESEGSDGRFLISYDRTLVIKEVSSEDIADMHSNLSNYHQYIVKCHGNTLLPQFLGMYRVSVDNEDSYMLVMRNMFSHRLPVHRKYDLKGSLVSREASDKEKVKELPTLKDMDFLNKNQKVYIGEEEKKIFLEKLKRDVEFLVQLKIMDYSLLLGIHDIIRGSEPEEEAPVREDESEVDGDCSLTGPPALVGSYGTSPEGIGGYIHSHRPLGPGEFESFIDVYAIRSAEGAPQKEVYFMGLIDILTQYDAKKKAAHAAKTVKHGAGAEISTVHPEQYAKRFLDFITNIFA

[6] = target: IKK epsilon/TBK1 (Homo sapiens) (UniProt Q14164+Q9UHD2); experiment: Inhibition of human IKKepsilon/TBK1 in HL-60 cells lysate assessed as reduction of labeling of acyl-phosphate ATP probe at 100 nM; assay type: cell-free
[7] = target: Serine/threonine-protein kinase 16 (Homo sapiens) (UniProt O75716); experiment: Inhibition of human MPSK1 in HL-60 cells lysate assessed as reduction of labeling of acyl-phosphate ATP probe at 100 nM; assay type: cell-free
Chain of Serine/threonine-protein kinase 16 (Homo sapiens) (O75716 whole entry): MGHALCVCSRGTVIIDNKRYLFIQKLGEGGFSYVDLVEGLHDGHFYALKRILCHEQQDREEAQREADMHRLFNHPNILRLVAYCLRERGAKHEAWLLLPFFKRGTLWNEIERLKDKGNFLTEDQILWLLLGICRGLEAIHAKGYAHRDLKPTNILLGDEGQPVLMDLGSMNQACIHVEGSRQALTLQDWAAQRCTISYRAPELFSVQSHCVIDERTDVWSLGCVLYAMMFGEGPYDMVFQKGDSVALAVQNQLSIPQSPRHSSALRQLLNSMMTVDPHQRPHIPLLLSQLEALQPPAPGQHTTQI

[8] = target: Serine/threonine-protein kinase 10 (Homo sapiens) (UniProt O94804); experiment: Inhibition of human LOK in HL-60 cells lysate assessed as reduction of labeling of acyl-phosphate ATP probe at 100 nM; assay type: cell-free
Chain of Serine/threonine-protein kinase 10 (Homo sapiens) (O94804 whole entry, looked up): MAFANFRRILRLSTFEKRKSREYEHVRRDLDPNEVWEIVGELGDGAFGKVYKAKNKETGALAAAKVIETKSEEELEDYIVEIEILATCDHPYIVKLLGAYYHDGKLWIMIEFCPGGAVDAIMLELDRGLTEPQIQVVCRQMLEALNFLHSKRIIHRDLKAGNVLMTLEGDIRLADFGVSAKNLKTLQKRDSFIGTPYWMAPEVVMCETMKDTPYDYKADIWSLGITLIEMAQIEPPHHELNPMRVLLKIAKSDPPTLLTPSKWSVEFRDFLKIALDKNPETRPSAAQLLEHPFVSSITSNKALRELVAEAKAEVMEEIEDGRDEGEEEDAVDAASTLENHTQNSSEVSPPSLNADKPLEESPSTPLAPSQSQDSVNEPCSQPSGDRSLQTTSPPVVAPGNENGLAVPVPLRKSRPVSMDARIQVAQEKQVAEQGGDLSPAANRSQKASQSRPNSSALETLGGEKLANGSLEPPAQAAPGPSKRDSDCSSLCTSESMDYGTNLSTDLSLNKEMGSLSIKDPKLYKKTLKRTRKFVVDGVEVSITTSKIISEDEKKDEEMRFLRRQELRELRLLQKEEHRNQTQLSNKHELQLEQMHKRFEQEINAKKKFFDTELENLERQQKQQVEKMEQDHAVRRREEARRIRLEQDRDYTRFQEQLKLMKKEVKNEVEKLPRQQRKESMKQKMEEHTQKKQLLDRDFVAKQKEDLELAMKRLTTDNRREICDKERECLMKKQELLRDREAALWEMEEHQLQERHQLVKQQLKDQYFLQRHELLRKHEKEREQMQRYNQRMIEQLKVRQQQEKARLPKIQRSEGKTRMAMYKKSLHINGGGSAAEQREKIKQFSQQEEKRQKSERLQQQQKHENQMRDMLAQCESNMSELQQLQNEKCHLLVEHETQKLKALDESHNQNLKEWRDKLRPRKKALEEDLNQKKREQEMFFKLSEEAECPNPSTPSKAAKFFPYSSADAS

[9] = system: HL-60; experiment: Inhibition of human MST3/MST4/YSK1 in HL-60 cells lysate assessed as reduction of labeling of acyl-phosphate ATP probe at 100 nM
[10] = target: Serine/threonine-protein kinase OSR1 (Homo sapiens) (UniProt O95747); experiment: Inhibition of human OSR1 in HL-60 cells lysate assessed as reduction of labeling of acyl-phosphate ATP probe at 100 nM; assay type: cell-free
Chain of Serine/threonine-protein kinase OSR1 (Homo sapiens) (O95747 2-527 limits assumed): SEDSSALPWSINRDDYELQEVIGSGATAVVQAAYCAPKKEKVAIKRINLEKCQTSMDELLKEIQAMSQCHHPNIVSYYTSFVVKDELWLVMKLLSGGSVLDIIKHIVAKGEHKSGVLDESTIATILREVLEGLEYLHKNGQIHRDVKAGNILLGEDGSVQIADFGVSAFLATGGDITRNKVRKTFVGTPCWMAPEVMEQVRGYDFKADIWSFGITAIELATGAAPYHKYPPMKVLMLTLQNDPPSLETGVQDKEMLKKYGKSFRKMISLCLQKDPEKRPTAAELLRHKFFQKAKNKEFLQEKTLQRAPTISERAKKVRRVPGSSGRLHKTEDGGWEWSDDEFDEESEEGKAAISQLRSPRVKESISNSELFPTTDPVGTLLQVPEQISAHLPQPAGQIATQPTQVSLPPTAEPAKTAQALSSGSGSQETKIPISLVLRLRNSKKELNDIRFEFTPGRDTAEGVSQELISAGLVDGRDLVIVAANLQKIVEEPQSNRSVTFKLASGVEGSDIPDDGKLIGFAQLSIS

[11] = target: Serine/threonine-protein kinase PAK 2 (Homo sapiens) (UniProt Q13177); experiment: Inhibition of human PAK2 in HL-60 cells lysate assessed as reduction of labeling of acyl-phosphate ATP probe at 100 nM; assay type: cell-free
[12] = system: HL-60; experiment: Inhibition of human FYN/SRC/YES in HL-60 cells lysate assessed as reduction of labeling of acyl-phosphate ATP probe at 100 nM
[13] = target: Protein-tyrosine kinase 2-beta (Homo sapiens) (UniProt Q14289); experiment: Inhibition of human PYK2 in HL-60 cells lysate assessed as reduction of labeling of acyl-phosphate ATP probe at 100 nM; assay type: cell-free
Chain of Protein-tyrosine kinase 2-beta (Homo sapiens) (Q14289 whole entry, looked up): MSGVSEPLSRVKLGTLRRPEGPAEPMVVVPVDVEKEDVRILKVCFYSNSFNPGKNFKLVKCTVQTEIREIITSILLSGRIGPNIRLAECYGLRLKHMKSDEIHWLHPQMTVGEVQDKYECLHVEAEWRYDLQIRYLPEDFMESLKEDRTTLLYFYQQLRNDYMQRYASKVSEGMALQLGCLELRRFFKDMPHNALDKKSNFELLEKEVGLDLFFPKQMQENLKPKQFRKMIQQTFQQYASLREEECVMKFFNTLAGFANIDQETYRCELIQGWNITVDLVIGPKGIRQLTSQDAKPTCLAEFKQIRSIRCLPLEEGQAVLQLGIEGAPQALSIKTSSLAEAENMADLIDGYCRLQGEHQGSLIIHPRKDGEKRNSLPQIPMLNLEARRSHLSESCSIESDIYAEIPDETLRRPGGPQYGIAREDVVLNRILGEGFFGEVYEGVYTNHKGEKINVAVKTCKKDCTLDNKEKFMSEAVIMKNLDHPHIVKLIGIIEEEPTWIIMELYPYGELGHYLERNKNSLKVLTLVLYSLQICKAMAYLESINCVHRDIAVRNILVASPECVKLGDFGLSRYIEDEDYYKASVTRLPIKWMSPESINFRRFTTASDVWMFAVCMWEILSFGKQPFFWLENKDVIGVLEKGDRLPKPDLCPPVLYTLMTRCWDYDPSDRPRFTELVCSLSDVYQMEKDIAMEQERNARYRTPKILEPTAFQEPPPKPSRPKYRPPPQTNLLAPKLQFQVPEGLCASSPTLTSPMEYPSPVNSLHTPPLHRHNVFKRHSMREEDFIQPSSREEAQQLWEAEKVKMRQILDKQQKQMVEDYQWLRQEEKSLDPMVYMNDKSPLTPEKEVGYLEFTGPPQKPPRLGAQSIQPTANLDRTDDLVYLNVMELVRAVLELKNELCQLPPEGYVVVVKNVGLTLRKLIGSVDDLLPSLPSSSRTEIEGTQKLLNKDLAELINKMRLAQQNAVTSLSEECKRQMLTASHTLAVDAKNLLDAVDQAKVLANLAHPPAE

[14] = target: Mitogen-activated protein kinase kinase kinase 11 (Homo sapiens) (UniProt Q16584); experiment: Inhibition of human MLK3 in HL-60 cells lysate assessed as reduction of labeling of acyl-phosphate ATP probe at 100 nM; assay type: cell-free
[15] = target: RAF proto-oncogene serine/threonine-protein kinase (Homo sapiens) (UniProt P04049); experiment: Inhibition of human RAF1 in HL-60 cells lysate assessed as reduction of labeling of acyl-phosphate ATP probe at 100 nM; assay type: cell-free
[16] = system: Escherichia coli; experiment: Antibacterial activity against Escherichia coli ATCC 8739; assay type: ADME, organism-based
[17] = system: Staphylococcus aureus; experiment: Antibacterial activity against Staphylococcus aureus Smith; assay type: ADME, organism-based
[18] = target: Mitogen-activated protein kinase 1 (Homo sapiens) (UniProt P28482); experiment: Inhibition of human Erk2 in HL-60 cells lysate assessed as reduction of labeling of acyl-phosphate ATP probe at 100 nM; assay type: cell-free
Chain of Mitogen-activated protein kinase 1 (Homo sapiens) (P28482 whole entry): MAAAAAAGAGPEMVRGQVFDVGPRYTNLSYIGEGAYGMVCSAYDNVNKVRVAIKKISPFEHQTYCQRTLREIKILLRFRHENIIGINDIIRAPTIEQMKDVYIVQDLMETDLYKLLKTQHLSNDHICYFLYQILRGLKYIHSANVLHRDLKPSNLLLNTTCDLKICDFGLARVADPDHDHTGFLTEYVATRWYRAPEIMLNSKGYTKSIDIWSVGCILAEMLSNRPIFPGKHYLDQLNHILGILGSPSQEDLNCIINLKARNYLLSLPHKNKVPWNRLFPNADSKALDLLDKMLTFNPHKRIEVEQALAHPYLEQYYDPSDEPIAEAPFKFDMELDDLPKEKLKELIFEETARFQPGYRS

[19] = target: Mitogen-activated protein kinase 14 (Homo sapiens) (UniProt Q16539); experiment: Inhibition of human P38alpha in HL-60 cells lysate assessed as reduction of labeling of acyl-phosphate ATP probe at 100 nM; assay type: cell-free
Chain of Mitogen-activated protein kinase 14 (Homo sapiens) (Q16539 whole entry): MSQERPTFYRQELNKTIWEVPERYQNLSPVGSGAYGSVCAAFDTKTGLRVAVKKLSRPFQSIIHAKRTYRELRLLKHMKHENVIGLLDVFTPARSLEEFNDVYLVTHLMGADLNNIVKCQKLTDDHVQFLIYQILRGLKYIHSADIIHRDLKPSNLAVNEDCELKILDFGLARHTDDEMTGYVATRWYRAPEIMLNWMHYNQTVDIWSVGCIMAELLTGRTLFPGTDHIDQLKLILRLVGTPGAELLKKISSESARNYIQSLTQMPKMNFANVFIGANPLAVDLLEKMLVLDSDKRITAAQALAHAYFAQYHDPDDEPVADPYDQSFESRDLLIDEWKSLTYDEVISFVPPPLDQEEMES

[20] = target: Cyclin-dependent kinase 9 (Homo sapiens) (UniProt P50750); experiment: Inhibition of human CDK9 in HL-60 cells lysate assessed as reduction of labeling of acyl-phosphate ATP probe at 100 nM; assay type: cell-free
Chain of Cyclin-dependent kinase 9 (Homo sapiens) (P50750 whole entry): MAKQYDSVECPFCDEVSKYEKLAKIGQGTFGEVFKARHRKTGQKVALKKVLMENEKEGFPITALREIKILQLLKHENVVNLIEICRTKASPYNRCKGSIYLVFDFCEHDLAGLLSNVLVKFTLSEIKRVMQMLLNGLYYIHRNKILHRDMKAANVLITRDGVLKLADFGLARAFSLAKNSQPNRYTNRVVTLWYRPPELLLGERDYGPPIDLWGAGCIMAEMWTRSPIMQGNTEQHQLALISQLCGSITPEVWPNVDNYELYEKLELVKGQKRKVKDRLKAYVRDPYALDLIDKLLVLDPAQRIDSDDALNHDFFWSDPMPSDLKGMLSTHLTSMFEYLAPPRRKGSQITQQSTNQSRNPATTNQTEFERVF

[21] = system: HL-60; experiment: Inhibition of human CLK1/CLK4 in HL-60 cells lysate assessed as reduction of labeling of acyl-phosphate ATP probe at 100 nM
[22] = target: Mitogen-activated protein kinase 3 (Homo sapiens) (UniProt P27361); experiment: Inhibition of human Erk1 in HL-60 cells lysate assessed as reduction of labeling of acyl-phosphate ATP probe at 100 nM; assay type: cell-free
[23] = target: Mitogen-activated protein kinase 7 (Homo sapiens) (UniProt Q13164); experiment: Inhibition of human Erk5 in HL-60 cells lysate assessed as reduction of labeling of acyl-phosphate ATP probe at 100 nM; assay type: cell-free
[24] = target: Cyclin-dependent kinase 17 (Homo sapiens) (UniProt Q00537); experiment: Inhibition of human PCTAIRE2 in HL-60 cells lysate assessed as reduction of labeling of acyl-phosphate ATP probe at 100 nM; assay type: cell-free

inhibition [1]	inhibition [2]	inhibition [3]	inhibition [4]	inhibition [5]	inhibition [6]	inhibition [7]	inhibition [8]	inhibition [10]	inhibition [11]	inhibition [13]	inhibition [14]	inhibition [15]	MIC [16]	MIC [17]	inhibition [18]	inhibition [19]	inhibition [20]	Compound	inhibition at 0.1 µM [9]	inhibition at 0.1 µM [12]	further results
< 35%	< 35%	< 35%	< 35%	< 35%	< 35%	< 35%	< 35%	< 35%	< 35%	< 35%	< 35%	< 35%	> 298 µM	> 298 µM	< 35%	< 35%	< 35%	C[C@H]1COc2c(NCCCc3ccccn3)c(F)c(N)c3c(=O)c(C#N)cn1c23	< 35%	< 35%	inhibition at 0.1 µM [21]: < 35%; inhibition [22]: < 35%; inhibition [23]: < 35%; inhibition [24]: < 35%
< 35%	< 35%	< 35%	< 35%	< 35%	< 35%	< 35%	< 35%	< 35%	< 35%	< 35%	< 35%	< 35%	> 306 µM	> 306 µM	< 35%	< 35%	< 35%	C[C@H]1COc2c(NCCCn3cccn3)c(F)c(N)c3c(=O)c(C#N)cn1c23	< 35%	< 35%	inhibition at 0.1 µM [21]: < 35%; inhibition [22]: < 35%; inhibition [23]: < 35%; inhibition [24]: < 35%
< 35%	< 35%	< 35%	< 35%	< 35%	< 35%	< 35%	< 35%	< 35%	< 35%	< 35%	< 35%	< 35%	19 µM (≈ 7.84 µg/mL)	2 µM (≈ 0.825 µg/mL)	< 35%	< 35%	< 35%	C[C@H]1COc2c(NCCCc3ccccn3)c(F)c(N)c3c(=O)c(C(=O)O)cn1c23	< 35%	< 35%	inhibition at 0.1 µM [21]: < 35%; inhibition [22]: < 35%; inhibition [23]: < 35%; inhibition [24]: < 35%
< 35%	< 35%	< 35%	< 35%	< 35%	< 35%	< 35%	< 35%	< 35%	< 35%	< 35%	< 35%	< 35%	20 µM (≈ 8.03 µg/mL)	2 µM (≈ 0.803 µg/mL)	< 35%	< 35%	< 35%	C[C@H]1COc2c(NCCCn3cccn3)c(F)c(N)c3c(=O)c(C(=O)O)cn1c23	< 35%	< 35%	inhibition at 0.1 µM [21]: < 35%; inhibition [22]: < 35%; inhibition [23]: < 35%; inhibition [24]: < 35%
